In patent US12516054B2, “Pyrazolo[1,5-a]pyridine derivatives, preparation method therefor and use thereof” (SHANGHAI DAIDAI INVESTMENT CONSULTING CO., LTD, priority 2019, dated 2026):

What was measured:
TT cells = assay: Inhibition of proliferation of tumor cells with abnormal RET (TT cells), CellTiter-Glo; assay type: cell-based; details: 192 h, TT cells (human MTC, RET C634W), incubated 8 d, read-out: IC50 for inhibition on TT cell proliferation
Description: The following method was used to determine the inhibitory activity of the preferred compound of the present disclosure on the proliferation of TT cells in vitro. TT cells were a human medullary thyroid cancer (MTC) cell line, including the RET C634W mutation. The cell line was purchased from the American ATCC (Cat. No. ATCC® CRL-1803). The cells were cultivated at 37° C. and 5% CO2 with the Ham's F-12K (Kaighn's) medium (purchased from Thermofisher, Gibco, Cat. No. 21127022) that was supplemented with 10% fetal bovine serum (FBS, purchased from Thermofisher, Gibco, Cat. No. 12483-020), 1× Glutamax (purchased from Thermofisher, Gibco, Cat. No. 35050061), 1× non-essential amino acids (purchased from Thermofisher, Gibco, Cat. No. 11140050), and 1× Pen/Strep antibiotics (purchased from Thermofisher, Gibco, Cat. No. 15140122). Cell viability was determined using CellTiter-Glo® Luminescent Cell Viability Assay (Cat. No. G7573) of Promega.
Brief description of an experimental method: The day before the formal experiment, the cells at the logarithmic growth phase were digested with trypsin (purchased from Thermofisher, Gibco, Cat. No. 25300054), then an appropriate volume of the medium was added to terminate the trypsin reaction, and a resulting mixture was centrifuged at a speed of 1,000 rpm; a resulting supernatant was removed, and fresh medium was added to prepare a cell suspension; and 50 µL of the cell suspension was added to a 96-well cell culture plate (purchased from Corning, Cat. No. 3904) with a cell density of 6,000 cells/well, and then the cell culture plate was incubated overnight at 37° C. and 5% CO2. […] After the incubation was completed, 50 μL of a CellTiter-Glo reagent was added to each well, a resulting mixture was thoroughly shaken and then incubated at room temperature for 10 min in the dark, and then a signal of each well was read on the Envision microplate reader (Perkin Elmer). […]

[1] = target: GST-hRET kinase (658-1114) (Homo sapiens (Human), UniProt P07949); assay: Inhibitory activity on RET enzyme (HTRF KinEASE-TK); assay type: biochemical; details: 0.5 nM RET kinase, 10 μM ATP, read-out: IC50 for inhibition on RET enzyme activity
Description: 2. Reagent Preparation • (1) 1× enzyme reaction buffer: 5× enzyme reaction buffer was diluted with ultrapure water (UPW) at 4:1, and then 25 nM SEB was added. • (2) 5×RET kinase: RET kinase was diluted with 1× enzyme reaction buffer to 2.5 nM. • (3) 5×ATP: ATP was diluted with 1× enzyme reaction buffer to 50 μM. • (4) 5× substrate: TK substrate-biotin was diluted with 1× enzyme reaction buffer to 2,500 nM. • (5) 2.5× compound: The highest final concentration was 2,500 nm, 3-fold gradient dilution was conducted to obtain 10 dilution points, and a final DMSO concentration was 0.4%. • (6) 4× Steptavidin-XL665: Steptavidin-XL665 was diluted with 1× enzyme reaction buffer to […]. 3. Experimental Process • (1) 5×RET kinase was added to a 384-well plate at 2 μl/well (final concentration of 0.5 nM), and a blank group (enzyme reaction buffer) was set as a negative control. • (2) A 2.5× compound solution was added at 4 μl/well, and then the plate was incubated at room temperature for 30 min. A DMSO group was set as a positive control. • (3) 5× substrate (at 2 μl/well, final concentration: 500 nM) and 5×ATP (at 2 μl/well, final concentration: 10 μM) were added to start a reaction, and the reaction was conducted at room temperature for 30 min. • (4) TK Antibody-Cryptate (at 5 μl/well) and 4× Steptavidin-XL665 (at 5 μl/well, final concentration: […]) were added, and the plate was incubated at room temperature for 60 min. • (5) An HTRF signal was read on Envision. 4. Data Analysis
The dosage effect (IC50) of the compound with analyzed using the Graph Pad prism software.

GST-hRET kinase (658-1114), sequence (P07949 658-1114): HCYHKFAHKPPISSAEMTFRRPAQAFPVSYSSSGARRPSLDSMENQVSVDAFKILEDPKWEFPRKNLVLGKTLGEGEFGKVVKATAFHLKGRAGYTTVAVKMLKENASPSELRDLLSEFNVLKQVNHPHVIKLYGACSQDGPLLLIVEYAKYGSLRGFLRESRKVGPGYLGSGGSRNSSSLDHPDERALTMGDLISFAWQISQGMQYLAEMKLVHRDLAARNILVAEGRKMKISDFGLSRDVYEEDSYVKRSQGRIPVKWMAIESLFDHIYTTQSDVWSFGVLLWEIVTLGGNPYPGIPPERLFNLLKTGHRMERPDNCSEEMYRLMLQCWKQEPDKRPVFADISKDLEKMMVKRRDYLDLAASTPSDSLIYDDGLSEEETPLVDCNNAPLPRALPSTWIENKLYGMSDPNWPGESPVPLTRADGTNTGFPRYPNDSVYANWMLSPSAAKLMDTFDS

COc1ccc(CN2CC=C(c3ccc(-c4cc(-c5cnn(C)c5)cn5ncc(C#N)c45)cn3)CC2)cn1 [Compound 1, 4-(1′-((6-methoxypyridin-3-yl)methyl)-1′,2′,3′,6′-tetrahydro-[2,4′-bipyridin]-5-yl)-6-(1-methyl-1H-pyrazol-4-yl)pyrazolo[1,5-a]pyridine-3-carbonitrile] was tested, and the IC50 (TT cells) was 28.9 nM and the IC50 [1] was 23.1 nM.

For COc1ccc(C(=O)N2CC=C(c3ccc(-c4cc(OCC(C)(C)O)cn5ncc(C#N)c45)cn3)CC2)cn1 [Compound 8, 6-(2-hydroxy-2-methylpropoxy)-4-(1′-(6-methoxynicotinoyl)-1′,2′,3′,6′-tetrahydro-[2,4′-bipyridin]-5-yl)pyrazolo[1,5-a]pyridine-3-carbonitrile], the IC50 (TT cells) was 87.8 nM.

In the case of COc1ccc(CN2C3CC2CN(c2ccc(-c4cc(CCC(C)(C)O)cn5ncc(C#N)c45)cn2)C3)cn1 [Compound 10, 6-(3-hydroxy-3-methylbutyl)-4-(6-(6-((6-methoxypyridin-3-yl)methyl)-3,6-diazabicyclo[3.1.1]heptan-3-yl)pyridin-3-yl)pyrazolo[1,5-a]pyridine-3-carbonitrile], the IC50 (TT cells) is reported as 68.6 nM and the IC50 [1] is reported as 5.6 nM.

COc1ccc(CN2CC=C(c3ccc(-c4cc(OCC(C)(C)O)cn5ncc(C#N)c45)cn3)CC2)cn1 [Compound 2, 6-(2-hydroxy-2-methylpropoxy)-4-(1′-((6-methoxypyridin-3-yl)methyl)-1′,2′,3′,6′-tetrahydro-[2,4′-bipyridin]-5-yl)pyrazolo[1,5-a]pyridine-3-carbonitrile] was tested, and the IC50 [1] was 25.4 nM.
